# Structures can show the parent of a compound that is named as a salt.
# Tests used:
# Human FIIa = molecular target: T1, Human FIIa (Homo sapiens, UniProt P00734); assay: Determination of anti-factor IIa (FIIa) activity, synthetic substrate S-2238; type: biochemical; settings: S-2238, 37° C., pH 8.4, read-out: Experimental Example 2: anti-FIIa activity, IC50
# T1 construct: purchased Sigma
# normal plasma [1] = assay: Determination of prothrombin time (PT), human plasma; type: biochemical
# Protocol: (§1) Determination of prothrombin time (PT)
# (§2) Blood was taken from mouse, rat, crab-eating monkey and healthy human volunteers, and citric acid was added. The blood was centrifuged at 4° C. and 2000 G for 15 min to obtain normal plasma of various animals.
# (§3) Purified water (5 μl) containing various concentrations of test compound was added to plasma (45 μl) and the resultant mixtures were used as samples. […] (Baxter) was prepared and heated at […] for 5 min, and a sample (50 μl) was admixed with the thrombin reagent (100 μl). The time (PT) until precipitation of fibrin was measured. The drug concentration that doubled the PT hours of the drug untreated group was calculated and taken as CT2.
# Human FXa [2] = molecular target: T2, Human FXa (Homo sapiens, UniProt P00742); assay: Intravenous administration test in mouse, human FXa inhibitory activity in serum; type: in vivo; settings: ICR mice, i.v., mean ± S.D., n = 3
# T2 construct: Human FXa [Enzyme research Laboratories (USA)] enzyme; purchased Enzyme Research Laboratories (USA)
# Protocol: Intravenous Administration Tests in Mouse
# A test compound dissolved in physiological saline was intravenously administered to ICR mice (body weight 20-30 g, 4-6 weeks old) and the activity of the test compound was evaluated based on the human FXa inhibitory activity in serum as an indicator.
# At 10, 30, 60, 120 min from the intravenous administration, blood was taken from the eye ground using a hematocrit tube. The blood was centrifuged at 9000 G for 5 min and the obtained serum was used for the determination.
# (§4) Human FXa inhibitory activity was measured as follows. Human FXa [Enzyme research Laboratories (USA)] enzyme (40 μl, 0.5 U/ml) and a 4-fold diluted plasma sample (40 μl) were incubated in 0.1M Tris-0.2M NaCl buffer (pH 8.4) (40 μl) at 37° C. for 10 min. A synthetic substrate S-2222 (Daiichi Pure Chemical (Tokyo, Japan), 40 μl) adjusted to 0.8 mM was added and the mixture was incubated at 37° C. for 5 min. The reaction was stopped by addition of 60% acetic acid (40 μl) and absorbance at 405 nm was measured by Model 3550 (BIO-RAD). For the control, serum or plasma obtained prior to blood sampling was used for measurement. Human FXa inhibitory activity was calculated as inhibition percentage (%) against control.
# Target sequence in this assay (P00742 235-488 limits assumed): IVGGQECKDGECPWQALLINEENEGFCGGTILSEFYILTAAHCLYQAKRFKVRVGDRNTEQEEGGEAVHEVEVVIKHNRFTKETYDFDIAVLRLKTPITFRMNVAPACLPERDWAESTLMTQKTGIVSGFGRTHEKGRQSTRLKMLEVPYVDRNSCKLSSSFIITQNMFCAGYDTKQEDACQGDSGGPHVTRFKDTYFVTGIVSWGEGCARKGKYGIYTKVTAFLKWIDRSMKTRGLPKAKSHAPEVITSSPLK
# Target sequence in this assay (P00742 41-179 limits assumed): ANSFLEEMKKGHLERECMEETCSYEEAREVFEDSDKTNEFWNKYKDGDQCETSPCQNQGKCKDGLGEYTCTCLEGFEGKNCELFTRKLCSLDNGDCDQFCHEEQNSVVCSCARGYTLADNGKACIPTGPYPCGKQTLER
# normal plasma [3] = assay: Determination of prothrombin time (PT), rat plasma; type: biochemical
# Protocol: as §1, §2, §3
# Human FXa [4] = molecular target: T2, Human FXa; assay: Determination of anti-factor Xa (FXa) activity, synthetic substrate S-2222; type: biochemical; settings: S-2222, 37° C., pH 8.4, read-out: Experimental Example 1: anti-FXa activity, IC50
# Summary of the method: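 Enzyme (0.16U/ml) preincubated with compound 10 min at 37 °C in 0.1 M Tris-0.2 M NaCl, pH 8.4. S-2222 (0.8 mM, pre-addition) then added, 10 min at 37 °C, stopped with acetic acid. Absorbance at 405 nm versus solvent control.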
# Target sequence in this assay (P00742 235-488 limits assumed): as the sequence (P00742 235-488 limits assumed) above
# Target sequence in this assay (P00742 41-179 partner limits assumed): as the sequence (P00742 41-179 limits assumed) above
# Human FXa [5] = molecular target: T2, Human FXa; assay: Oral administration test in monkey, human FXa inhibitory activity in plasma; type: in vivo; settings: crab-eating monkey, mean ± S.D., n = 3
# Protocol: as §4
# Target sequence in this assay (P00742 235-488 limits assumed): as the sequence (P00742 235-488 limits assumed) above
# Target sequence in this assay (P00742 41-179 limits assumed): as the sequence (P00742 41-179 limits assumed) above
# Oral Administration Tests in Monkey
# A test compound dissolved in distilled water was orally administered to monkey (carb-eating monkey, body weight 3.5-4.5 kg) and the activity of the test compound was evaluated based on the human FXa inhibitory activity in plasma as an indicator.
# (§5) At 30, 60, 120, 240, 480 min from the oral administration, blood was taken from the saphenous vein with the passage of time and the blood was centrifuged at 2000 G for 10 min. The obtained citric acid plasma was used for the determination. Human FXa inhibitory activity was determined in the same manner as in the test by intravenous administration.
# [6] = system: decrease of platelets and formation of FDP by thromboplastin; assay: Blood coagulation model in rat (thromboplastin); type: in vivo; settings: i.v. 10 min before thromboplastin, mean ± S.D, n = 3; for PLT value: counted 10 min later; for FDP value: measured 30 min later
# Protocol: Blood Coagulation Model in Rat
# Intravenous administration of thromboplastin (Sigma) to rat promotes coagulation system, which in turn decreases platelets and increases fibrin degradation product (FDP). Thus, the test compound was intravenously administered 10 min before thromboplastin administration and the inhibitory effects of the test compound on the decrease of platelets and the formation of FDP by thromboplastin were studied. The thromboplastin administered had such concentration as to form clots within 20 seconds from the addition of one plasma dose to two thromboplastin doses and was administered in 1 ml/kg dose. Platelets were counted (PLT value) 10 min later on a blood cell counter sysmex F-800 [Dade International Inc. (USA)], and FDP was measured 30 min later using FDP latex reagent for serum [Teikoku Hormone Mfg. Co., Ltd. (Tokyo, Japan)]. In every Example, the PLT value of the thromboplastin untreated group was (106±13)×10^4 and the FDP value of this group was 0±0 μg/ml.
# Human FXa [7] = molecular target: T2, Human FXa; assay: Intravenous administration test in monkey, human FXa inhibitory activity in plasma; type: in vivo; settings: crab-eating monkey, i.v., mean ± S.D., n = 3
# Protocol: as §4
# Target sequence in this assay (P00742 235-488 limits assumed): as the sequence (P00742 235-488 limits assumed) above
# Target sequence in this assay (P00742 41-179 limits assumed): as the sequence (P00742 41-179 limits assumed) above
# Intravenous Administration Tests in Monkey
# A test compound dissolved in physiological saline was intravenously administered to monkey (crab-eating monkey, body weight 3.5-4.5 kg) and the activity of the test compound was evaluated based on the human FXa inhibitory activity in plasma as an indicator.
# as §5, with “At 10,” for “At”, “180” for “240, 480”, “intravenous” for “oral”, “using mouse.” for “by intravenous administration.”
smiles,measurement,setting,value
"CC(=N)N1CCC(Oc2ccc(N(Cc3nc4cc(C(=N)N)ccc4n3CC(=O)N[C@@H](C)c3ccccc3)C(=O)c3ccc(C(=O)O)cc3)cc2)CC1 [Example 17, (S)-4-[N-[5-Amidino-1-(1-phenylethylcarbamoylmethyl)benzimidazole-2-ylmethyl]-N-[4-(1-acetimidoylpiperidin-4-yloxy)phenyl]carbamoyl]benzoic Acid Dihydrochloride]",IC50,Human FIIa,> 10000 nM
same,CT2 (drug concentration that doubled the PT),normal plasma [1],0.5 µM
same,inhibition at 0.1 mg/kg,Human FXa [2]; 10 minutes,31 ± 3%
same,inhibition at 0.1 mg/kg,Human FXa [2]; 30 minutes,10 ± 3%
same,inhibition at 0.1 mg/kg,Human FXa [2]; 60 minutes,0%
same,inhibition at 0.1 mg/kg,Human FXa [2]; 120 minutes,0%
same,inhibition at 0.3 mg/kg,Human FXa [2]; 10 minutes,65 ± 1%
same,inhibition at 0.3 mg/kg,Human FXa [2]; 30 minutes,38 ± 5%
same,inhibition at 0.3 mg/kg,Human FXa [2]; 60 minutes,16 ± 3%
same,inhibition at 0.3 mg/kg,Human FXa [2]; 120 minutes,8 ± 4%
same,inhibition at 1 mg/kg,Human FXa [2]; 10 minutes,70 ± 1%
same,inhibition at 1 mg/kg,Human FXa [2]; 30 minutes,69 ± 2%
same,inhibition at 1 mg/kg,Human FXa [2]; 60 minutes,41 ± 10%
same,inhibition at 1 mg/kg,Human FXa [2]; 120 minutes,1 ± 3%
same,CT2 (drug concentration that doubled the PT),normal plasma [3],2 µM
same,IC50,Human FXa [4],3 nM
same,inhibition at 10 mg/kg,Human FXa [5]; 30 minutes,62 ± 53%
same,inhibition at 10 mg/kg,Human FXa [5]; 60 minutes,62 ± 51%
same,inhibition at 10 mg/kg,Human FXa [5]; 120 minutes,83 ± 13%
same,inhibition at 10 mg/kg,Human FXa [5]; 240 minutes,68 ± 16%
same,inhibition at 10 mg/kg,Human FXa [5]; 480 minutes,27 ± 10%
same,PLT value,[6]; dose 0.01 mg/kg,41 ± 13 ×10^4 blood platelet/μl
same,FDP value,[6]; dose 0.01 mg/kg,6 ± 3 µg/mL
same,PLT value,[6]; dose 0.03 mg/kg,92 ± 11 ×10^4 blood platelet/μl
same,FDP value,[6]; dose 0.03 mg/kg,1 ± 1 µg/mL
same,PLT value,[6]; dose 1 mg/kg,108 ± 6 ×10^4 blood platelet/μl
same,FDP value,[6]; dose 1 mg/kg,0 ± 0 µg/mL
same,inhibition at 1 mg/kg,Human FXa [7]; 10 minutes,90 ± 6%
same,inhibition at 1 mg/kg,Human FXa [7]; 30 minutes,90 ± 1%
same,inhibition at 1 mg/kg,Human FXa [7]; 60 minutes,86 ± 2%
same,inhibition at 1 mg/kg,Human FXa [7]; 120 minutes,77 ± 6%
same,inhibition at 1 mg/kg,Human FXa [7]; 180 minutes,65 ± 12%
